{
  "source": "patent US20140187470A1",
  "about": "(Synergy Pharmaceuticals Inc., priority 2013, published 2014)",
  "key": {"[1]": {"tested_on": "CaCo-2 cells", "test": "3H-taurocholate (bile acid) absorption by CaCo-2 monolayer", "format": "cell-based, human", "conditions": "for Absorption of 3H-taurocholate (kinetics experiment): 16-day grown CaCo-2 monolayers, up to 60 minutes incubation; for Absorption of 3H-taurocholate (kinetics experiment) / Absorption of 3H-taurocholate (bar graph experiment): 30 minutes pre-incubation; for Absorption of 3H-taurocholate (bar graph experiment): CaCo-2 cells grown for 20 days, 60 minutes incubation, quadruplets", "description": "(§1) CaCo-2 cell culture: CaCo-2, human colon carcinoma cells, were obtained from American Type Culture Collection (ATCC) and cultured in DMEM medium containing 10% fetal bovine serum, 1% penicillin-streptomycin, 2 mM L-glutamine, 1% non-essential-amino acids. Cells were fed fresh medium every third day and grown for 16-21 days to form completely differentiated monolayer. Fully differentiated CaCo-2 cells are known to express high density of GC-C receptors.\nPreparation of ^3H-taurocholate Cocktail: Phosphatidyl choline was dissolved in ethanol to make 50 mM stock solution. Calculated volume of the stock solution of phosphatidyl choline was mixed with 3H-taurocholate in a plastic tube and dried under argon gas at 80° C. The dried material was dissolved in transport buffer to get the final concentration of phosphatidyl choline (0.5 mM) and of 3H-taurocholate 10 μCi/mL.\nCaCo-2 cells were grown in 24-well plates for 16 days to allow complete monolayer formation and cell differentiation. Completely differentiated monolayers were then pre-incubated with 250 μL of the transport buffer (HEPES 25 mM, NaCl 120 mM, KCl 5.4 mM, CaCl2 1.8 mM and MgSO4, pH 7.5) containing either SP-304 alone or in combination with PDE inhibitors such as IBMX, SS and ZAP. The monolayers were pre-incubated with transport buffer containing either of the following: vehicle (control), 1 mM 8-bromo-cGMP, 500 μM SS, 500 μM ZAP, 1 μM SP-304, 0.1 μM SP-304+500 μM SS and 1 μM SP-304+500 μM ZAP. After the indicated pre-incubation time, 50 μL of ^3H-taurocholate (1 μCi) cocktail was added and cells were incubated for an additional 60 minutes, washed three times with ice cold PBS. Cells were lysed with 0.5 N NaOH for 4 hours and radioactivity in the lysate was counted in a scintillation counter.\n16-day grown monolayers of CaCo-2 cells in 24-well plates were pre-incubated with transport buffer containing the compounds as indicated in the figure for 30 minutes. After the pre-incubation, 1 μCi of ^3H-taurocholate cocktail was added in each well and cells were further incubated for 60 minutes. Cells were washed three times with ice cold PBS and lysed with 0.5 N NaOH and lysates were counted for radioactivity in a scintillation counter. Results are expressed as an average of three determinations. Results on the x-axis were plotted in logarithmic scale.\nAfter the pre-incubation, 1 μCi of ^3H-taurocholate cocktail was added in each well and cells were further incubated for 60 minutes. Cells were washed three times with ice cold PBS and lysed with 0.5 N NaOH and lysates were counted for radioactivity in a scintillation counter. This experiment was run in quadruplets and results are expressed as mean±SD.\nThe procedure used in this experiment was essentially the same except that a lower concentration of ZAP (250 μM) in combination experiments with SP-304."}, "[2]": {"target": "T1, GC-C receptors (Homo sapiens, UniProt P25092)", "T1 construct": "Fully differentiated CaCo-2 cells are known to express high density of GC-C receptors; host or cells: CaCo-2 human colon carcinoma cells, differentiated monolayers", "T1 sequence (P25092 24-1073)": "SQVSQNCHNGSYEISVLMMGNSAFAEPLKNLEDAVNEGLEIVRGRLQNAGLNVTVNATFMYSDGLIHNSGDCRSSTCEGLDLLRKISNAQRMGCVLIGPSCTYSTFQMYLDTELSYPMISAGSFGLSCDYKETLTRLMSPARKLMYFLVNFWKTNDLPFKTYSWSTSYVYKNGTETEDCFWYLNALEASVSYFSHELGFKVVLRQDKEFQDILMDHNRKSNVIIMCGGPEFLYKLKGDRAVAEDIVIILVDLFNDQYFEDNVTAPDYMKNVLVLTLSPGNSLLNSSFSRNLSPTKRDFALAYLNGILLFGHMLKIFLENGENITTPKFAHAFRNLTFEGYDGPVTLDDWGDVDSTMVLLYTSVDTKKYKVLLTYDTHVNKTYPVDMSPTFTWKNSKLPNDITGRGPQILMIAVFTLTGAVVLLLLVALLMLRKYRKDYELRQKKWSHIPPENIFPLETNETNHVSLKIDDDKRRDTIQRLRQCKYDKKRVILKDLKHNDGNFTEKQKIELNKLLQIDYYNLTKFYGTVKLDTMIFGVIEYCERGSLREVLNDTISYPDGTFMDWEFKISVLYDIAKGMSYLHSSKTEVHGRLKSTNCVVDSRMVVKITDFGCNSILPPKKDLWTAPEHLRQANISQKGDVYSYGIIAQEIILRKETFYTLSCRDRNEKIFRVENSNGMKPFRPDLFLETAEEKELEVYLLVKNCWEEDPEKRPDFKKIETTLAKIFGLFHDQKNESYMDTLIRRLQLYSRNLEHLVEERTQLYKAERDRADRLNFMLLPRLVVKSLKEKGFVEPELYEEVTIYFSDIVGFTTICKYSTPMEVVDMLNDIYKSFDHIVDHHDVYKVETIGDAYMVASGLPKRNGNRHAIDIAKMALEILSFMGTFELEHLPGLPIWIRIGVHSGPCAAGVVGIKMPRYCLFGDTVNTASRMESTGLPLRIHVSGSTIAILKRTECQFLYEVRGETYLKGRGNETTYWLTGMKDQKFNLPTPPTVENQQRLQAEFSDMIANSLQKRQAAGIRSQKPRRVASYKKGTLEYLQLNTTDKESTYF", "test": "Cyclic GMP stimulation assay in CaCo-2 cells", "format": "cell-based", "conditions": "CaCo-2 monolayers; for Effect of PDE inhibitor on stimulation of cGMP production by SP-304: in combination with SP-304, 30 minutes", "description": "as §1\nCyclic GMP stimulation assay: Biological activity of the GCRA peptides was assayed as previously reported (5). Briefly, 16 days grown monolayers of CaCo-2 cells in 24-well plates were washed twice with 250 μl of DMEM containing 50 mM HEPES (pH 7.4), pre-incubated at 37° C. for 10 min with 250 μl of DMEM containing 50 mM HEPES (pH 7.4) and 1 mM isobutylmethylxanthine (IBMX), followed by incubation with GCRA peptides (0.1 nM to 10 μM) for 30 min. The medium was aspirated, and the reaction was terminated by the addition of 3% perchloric acid. Following centrifugation, and neutralization with 0.1 N NaOH, the supernatant was used directly for measurements of cGMP using an ELISA kit (Caymen Chemical, Ann Arbor, Mich.)\nMonolayers were treated 500 μL of serum free DMEM for 30 minutes with either SP-304 alone or in combination with phosphodiesterase inhibitors such as, 3-isobutyl-1-methylxanthine (IBMX), sulindac sulfone (SS) and zaprinast (ZAP). After the incubation, monolayers were lysed with 250 μL of 3% perchloric acid. The lysate was neutralized with 0.1 N NaOH and used for ELISA to determine the concentration of cGMP. The assay procedure was essentially the same as described (5). […] Since CaCo-2 cells overexpress phosphodiesterases (PDE), GC-C agonists are used in combination with PDE inhibitors to measure the actual stimulatory effect of GC-C agonists."}, "[3]": {"tested_on": "animal models", "test": "Animal models, oral administration of plecanatide", "format": "in vivo"}, "[4]": {"test": "In vitro proteolytic stability using simulated intestinal fluid (SIF) digestion, HPLC analysis", "format": "in vitro ADME", "description": "FIG. 2B is a schematic representation of the results of HPLC chromatographic analyses of SP304 samples after incubation with (A) heat inactivated SIF for 300 min or with (B) SIF for 120 min. […] Arrows indicate the position of SP-304.\nArrow indicates the elution position of SP-304 peptide. […] These new peptide peaks represent the possible degradation products of SP-304.\nArrow indicates the elution position of SP-332 peptide.\nArrows indicate the elution position of SP-333.\nThe stability of the GRCA peptide is also evaluated against digestion with simulated intestinal fluid (SIF). SIF solution was prepared by the method as described in the United States Pharmacopoeia, 24th edition, p2236. The recipe to prepare SIF solution is as described below. The SIF solution contains NaCl (2.05 g/liter; Sigma), KH2PO4 (0.6 g/liter; Sigma), CaCl2 (0.11 g/liter), KCl (0.37 g/liter; Sigma), and Pacreatin 10 mg/ml. The pH is adjusted to 6 and the solution is filter sterilized. A solution of SP-304 (8.5 mg/ml) is incubated in […] at 37° C. for 0, 30, 60, 90, 120, 150 and 300 min in triplicate aliquots. Following incubations, samples are removed and snap frozen with dry ice and stored in a −80° C. freezer until they are assayed in duplicate. F\nThe integrity of GRCA peptide is evaluated by HPLC by essentially using the method described for SGF digestion."}, "[5]": {"tested_on": "patients with chronic idiopathic constipation (CIC)", "test": "Plecanatide Phase IIb/III trial in patients with chronic idiopathic constipation", "format": "in vivo, human", "description": "The randomized, double-blind, placebo-controlled, repeat-dose, dose-ranging study was designed to determine whether plecanatide could increase the number of complete spontaneous bowel movements (CSBM's) and impact other parameters such as stool consistency, straining and time to first bowel movement in patients with CIC. The 12-week study, which included 951 CIC patients at 113 clinical sites in the United States, evaluated 3 doses of plecanatide (0.3, 1.0, 3.0 mg) plus a placebo arm."}, "[6]": {"test": "In vitro proteolytic stability using simulated gastric fluid (SGF) digestion, HPLC analysis", "format": "in vitro ADME", "conditions": "0 min vs 120 min, HPLC (FIG. 1B)", "description": "FIG. 1B is a schematic representation of the results of HPLC chromatographic analyses of SP-304 samples after incubation with SGF at indicated times (0 min in the upper panel and 120 min in the lower panel). […] The arrows indicate the elution position of SP-304.\nThe stability of the GRCA peptide according to the invention is determined in the presence of simulated gastric fluid (SGF). GRCA peptide (final concentration of 8.5 mg/ml) is incubated in SGF (Proteose peptone (8.3 g/liter; Difco), D-Glucose (3.5 g/liter; Sigma), NaCl (2.05 g/liter; Sigma), KH2PO4 (0.6 g/liter; Sigma), CaCl2 (0.11 g/liter), KCl (0.37 g/liter; Sigma), Porcine bile (final 1× concentration 0.05 g/liter; Sigma) in PBS, Lysozyme (final 1× concentration 0.10 g/liter; Sigma) in PBS, Pepsin (final 1× concentration 0.0133 g/liter; Sigma) in PBS). SGF is made on the day of the experiment and the pH is adjusted to 2.0±0.1 using HCl or NaOH as necessary. After the pH adjustment, SGF is sterilized filtered with 0.22 μm membrane filters. SP-304 (final concentration of 8.5 mg/ml) is incubated in SGF at 37° C. for 0, 15, 30, 45, 60 and 120 min in triplicate aliquots. Following incubations, samples are snap frozen in dry ice then are stored in a −80° C. freezer until they are assayed in duplicate."}, "[7]": {"test": "simulated gastric fluid (SGF) with Pepsin (0.0133 g/liter), Lysozyme, Porcine bile, pH 2.0±0.1", "conditions": "37° C., up to 120 min"}, "[8]": {"conditions": "Phase IIb/III clinical study, oral, CIC"}},
  "note": "Where a SMILES comes first, the peptide text is derived from it. Bridges are numbered along the chain shown (N, C = ends).",
  "data": [
    {"compound": "Nc1nc2c(nc(Br)n2[C@@H]2O[C@@H]3COP(=O)(O)O[C@H]3[C@H]2O)c(=O)[nH]1", "note": "[8-Br-cGMP, 8-bromo-cGMP, reference compound]", "values": [
      {"measurement": "Absorption of 3H-taurocholate (kinetics experiment)", "setting": "[1]", "value": "inhibited"},
      {"measurement": "Absorption of 3H-taurocholate (bar graph experiment)", "setting": "[1]", "value": "inhibited"}
    ]},
    {"compound": "CC(C)Cn1c(=O)n(C)c(=O)c2[nH]cnc21", "note": "[IBMX, 3-isobutyl-1-methylxanthine]", "values": [
      {"measurement": "Effect of PDE inhibitor on stimulation of cGMP production by SP-304", "setting": "[2]", "value": "synergistic effects"}
    ]},
    {"compound": "CC(C)C[C@H](NC(=O)[C@@H]1CSSC[C@@H]2NC(=O)[C@H](CC(C)C)NC(=O)[C@H](CCC(=O)O)NC(=O)[C@@H](NC(=O)[C@H](CCC(=O)O)NC(=O)[C@H](CC(=O)O)NC(=O)[C@@H](N)CC(N)=O)CSSC[C@H](NC(=O)[C@H](C)NC(=O)[C@H](C(C)C)NC(=O)[C@H](CC(N)=O)NC(=O)[C@H](C(C)C)NC2=O)C(=O)N[C@@H]([C@@H](C)O)C(=O)NCC(=O)N1)C(=O)O", "note": "[SP-304, Asn^1-Asp^2-Glu^3-Cys^4-Glu^5-Leu^6-Cys^7-Val^8-Asn^9-Val^10-Ala^11-Cys^12-Thr^13-Gly^14-Cys^15-Leu^16] (H-NDECELCVNVACTGCL-OH; disulfide 4-12, 7-15; N-terminus assumed)", "values": [
      {"measurement": "GI inflammation", "setting": "[3]", "value": "ameliorates GI inflammation"},
      {"measurement": "Intestinal secretion", "setting": "[3]", "value": "promotes intestinal secretion"},
      {"measurement": "HPLC peak after incubation with SIF for 60 min", "setting": "[4]; 0 vs 60 min, HPLC (FIG. 7D)", "value": "completely vanished"},
      {"measurement": "HPLC peak after incubation with SIF for 120 min", "setting": "[4]; 120 min, HPLC (FIG. 2B, 7E, 7F)", "value": "completely converted SP-304 into another peptide"},
      {"measurement": "Absorption of 3H-taurocholate (kinetics experiment)", "setting": "[1]", "value": "inhibited"},
      {"measurement": "Absorption of 3H-taurocholate (bar graph experiment)", "setting": "[1]", "value": "inhibited"},
      {"measurement": "Inhibition in absorption of 3H-taurocholate, SP-304 alone", "setting": "[1]; SP-304 0.1 μM alone", "value": "did not produce much inhibition"},
      {"measurement": "Inhibition of 3H-taurocholate absorption, SP-304 in combination with ZAP", "setting": "[1]; SP-304 0.1 μM in combination with ZAP (250 μM)", "value": "greater effect on inhibition"},
      {"measurement": "Overall responder rate", "setting": "[5]; 3 mg dose, 12-week treatment, CIC patients (placebo 10.7%), p=0.009", "value": 19, "unit": "%"},
      {"measurement": "Mean increase in CSBMs over the 12-week treatment period", "setting": "[5]; 3 mg dose, CIC patients, p<0.001", "value": 2.13},
      {"measurement": "Incidence of diarrhea", "setting": "[5]; 3 mg, CIC patients (placebo incidence 1.3%)", "value": 9.7, "unit": "%"},
      {"measurement": "Key secondary endpoints", "setting": "[5]; Phase IIb/III clinical study, CIC patients", "value": "statistically significant improvements"},
      {"measurement": "Primary and key secondary endpoints of the study", "setting": "[5]; [8]", "value": "met the primary and key secondary endpoints"},
      {"measurement": "Tolerability", "setting": "[5]; [8]", "value": "well tolerated"},
      {"measurement": "HPLC major peak after incubation with SGF", "setting": "[6]", "value": "resistant to SGF digestion"},
      {"measurement": "cGMP production by CaCo-2 cells in response to stimulation", "setting": "[2]; 30 minutes", "value": "produced cGMP"}
    ]},
    {"compound": "CC1=C(CC(=O)O)c2cc(F)ccc2/C1=C\\c1ccc(S(C)(=O)=O)cc1", "note": "[SS, sulindac sulfone]", "values": [
      {"measurement": "Effect of PDE inhibitor on stimulation of cGMP production by SP-304", "setting": "[2]", "value": "synergistic effects"}
    ]},
    {"compound": "CCCOc1ccccc1-c1nc2nn[nH]c2c(=O)[nH]1", "note": "[ZAP, zaprinast]", "values": [
      {"measurement": "Production of cGMP among the PDE inhibitors", "setting": "[2]; in combination with SP-304", "value": "maximum production of cGMP"},
      {"measurement": "Effect of PDE inhibitor on stimulation of cGMP production by SP-304", "setting": "[2]", "value": "synergistic effects"}
    ]},
    {"compound": "Asn^1-Asp^2-Glu^3-Cys^4-Glu^5-Leu^6-Cys^7-Val^8-Asn^9-Val^10-Ala^11-Cys^12-Thr^13-Gly^14-Cys^15-Leu^16", "values": [
      {"measurement": "not cleaved", "setting": "[7]", "value": "major peak did not change after 120 min"}
    ]}
  ]
}
